# Data: patent publication EP1196153B1, “PROCESS FOR THE IMPROVEMENT OF SPERMATOZOA FERTILIZATION ACTIVITY” (Applied Research Systems ARS Holding N.V., priority 1999, dated 2001)
# Experiments:
# Format in all cases: cell-based, human
# [1] = test system: swim-up selected spermatozoa; test: Forward motility of LiCl treated swim-up selected spermatozoa; details: 10 µM, two hours, with or without different concentrations of LiCl; Fig. 7
# Excerpt: LiCl is also a known inhibitor of sperm cell motility.
# spermatozoa [2] = test: Computer aided sperm analysis (CASA) of sperm parameters; details: 10 µM; 12 oligoasthenospermic subjects; vs control sample; Fig. 6
# Protocol: These parameters were determined by computer aided sperm analysis (CASA) in sperm samples from 12 different oligoasthenospermic subjects.
# spermatozoa [3] = test: Sperm viability by eosin test and hypo-osmotic swelling; details: 100 µM
# Protocol: The effect of 100µM of LY294002 on the viability of the spermatozoa was also assessed (see insert of Fig. 3).
# [4] = test system: swim-up selected spermatozoa; test: Forward motility of H2O2 treated swim-up selected spermatozoa; details: for forward motility: n=12
# Protocol: It is well known that reactive oxygen species (ROS), which may be generated during sperm preparation for IVF, exert detrimental effects on sperm fertilization potential. In particular, among ROS, H2O2 strongly reduces motility when added to sperm samples at micromolar concentrations. Therefore, the effect of LY294002 on H2O2 treated sperm cells was evaluated. The compound was added to swim-up selected spermatozoa samples from oligoasthenospermic patients in amounts of 10 µM either alone or in combination with 200 µM of H2O2. […]
# spermatozoa [5] = test: Total sperm cell recovery in swim-up selection; details: n=20
# Protocol: (§1) In the experiments the following examples are based on, standard methods of in vitro fertilization have been used. With regard to the details of these methods, reference is made to the "WHO manual" (WHO laboratory manual for the examination of human semen and sperm-cervical mucus interactions, 4th edtition, Cambridge University Press 1999). In particular, the direct swim-up method can be taken from pp. 104 to 106 of this manual.
# (§2) The compound was added in a concentration of 10 µM.
# Table II summarizes the total sperm cell recovery in the swim-up, which was increased by 43% as compared to the control.
# spermatozoa [6] = test: Motility of spermatozoa in seminal liquid, evaluated blindly under the microscope (WHO manual)
# Protocol: as §1
# Spermatozoa were prepared according to the standard procedures of IVF. Briefly, spermatozoa were prepared from 3 oligoasthenospermic subjects undergoing semen analysis for couple infertility after informed consent. 10 µM of the PI3K inhibitor LY294002 were added directly to the seminal liquid and incubated for 2 hours […] at 37°C and 5% CO2. The motility of the spermatozoa was then blindly evaluated under the microscope according to WHO manual procedures.
# as §2
# [7] = test system: spermatozoa obtained by the swim-up method; test: Motility of spermatozoa after incubation and swim-up selection
# Excerpt: as §1, with “manual. […]” for “manual.”
# Fig. 3 summarizes the results obtained in a similar experiment on samples from higher numbers of patients. The sperm cells were submitted to the swim-up selection method.
# An improvement of percentage progressive motility after 2 hours of incubation of the sperm cells with LY294002 was clearly detectable, both on the rapid component (a) and on the rapid and slow component (a+b).
# The experiments described above were performed on samples from oligoasthenospermic individuals. The effects on the stimulation of progressive motility by LY294002 are more pronounced the more serious the sperm pathology of patients is (oligospermia, asthenospermia, teratospermia). However, the effect of this compound could also be observed in normospermic subjects. […]
# [8] = 10 µM, 2 hours of incubation, 12 individual patients, swim-up, Fig. 4
smiles,measurement,setting,value
"O=c1cc(N2CCOCC2)oc2c(-c3ccccc3)cccc12 [LY294002, 2-(4-morpholinyl)-8-phenyl-4H-1-benzopyran-4-one]",LiCl induced inhibition of sperm motility,[1],reversing the effect
same,average path velocity (VAP),spermatozoa [2],increased in a statistically significant manner
same,hyperactivated sperm fraction (HA),spermatozoa [2],increased in a statistically significant manner
same,percentage curvilinear velocity (VCL),spermatozoa [2],increased in a statistically significant manner
same,straight-line velocity (VSL),spermatozoa [2],increased in a statistically significant manner
same,sperm viability,spermatozoa [3]; 48 hours of incubation (not shown),no effect on sperm viability
same,vitality of the cells,"spermatozoa [3]; incubation for two hours, eosin test and hypo-osmotic swelling",did not alter the vitality
same,detrimental effects exerted by 200 µM H2O2 on sperm motility,[4]; 10 µM LY294002 added to the incubation medium,completely reversed
same,forward motility,"[4]; 10 µM LY294002 in combination with 200 µM H2O2, P<0.002 vs H2O2",52.6±5.5 (n=12) %
same,forward motility,"[4]; 10 µM alone, oligoasthenospermic patients, control 45.4±5.0, P<0.0001 vs Control",71.7±3.2 (n=12) %
same,increase of total sperm cell recovery in the swim-up vs control,spermatozoa [5]; 10 µM,43%
same,Sperm recovery in swim up,"spermatozoa [5]; LY 10 µM, control 13.3 ± 3.9, p<0.005",19.0 ± 4.8 10^6
same,rapid motility (a) of the spermatozoa in the seminal liquid,"spermatozoa [6]; 10 µM, 2 hours, 37°C, 5% CO2, 3 oligoasthenospermic subjects, Fig. 1",increase of rapid motility
same,percentage of forward motility (rapid and slow component a + b) in the seminal liquid,"spermatozoa [6]; 10 µM, 2 hours, 37°C, 5% CO2, 3 oligoasthenospermic subjects, Fig. 1B",increase
same,"% Sperm Forward Motility, Sperm in Seminal Plasma","spermatozoa [6]; LY 10 µM added to seminal plasma, 20 oligoasthenospermic patients, control 35.7±5.1, p<0.001",49.8±4.7%
same,"percentage progressive motility, rapid and slow component (a+b)",[7]; [8],improvement
same,"percentage progressive motility, rapid component (a)",[7]; [8],improvement
same,forward motility of spermatozoa,"[7]; 10 µM, two hours, then swim-up selection, 88 randomly selected subjects, control 53.5 ± 2.0 %",76.3 ± 1.5%
same,additional enhancement of spermatozoa motility,"[7]; 100 µM compared with 10 µM, swim-up, Fig. 3",about 10%
same,progressive motility,"[7]; 100 µM, 2 hours, then swim-up selection, 7 samples, Fig. 2",significant increase
same,activation at 10 µM,"[7]; Homo sapiens, Spermatozoa, 10 µM, 21 patients vs control 40 patients, swim-up, Fig. 3, read-out: increase in the progressive motility as compared to the control",58%
same,activation at 100 µM,"[7]; Homo sapiens, Spermatozoa, 100 µM, 29 patients vs control 40 patients, swim-up, Fig. 3, read-out: increase of the motility as compared to the control",67%
same,EC50,"[7]; Homo sapiens, Spermatozoa, samples from normospermic individuals, 0 to 1000 µM, swim-up, Fig. 5, read-out: EC50 (effect dose of 50%) on the rapid forward motility",~1000 nM
same,"% Sperm Forward Motility, Swim up-selected sperm","[7]; LY 10 µM added to seminal plasma, then swim-up, 20 oligoasthenospermic patients, control 54.2±4.5, p<0.001",68.6±3.9%
OO [H2O2],forward motility,"[4]; 200 µM H2O2 alone, oligoasthenospermic patients, control 45.4±5.0, P<0.0001 vs Control",26.5±4.9 (n=12) %
